IC50 data for 28 compounds are collected here from patent publication US20050197350A1, “Novel quinoline, tetrahydroquinazoline, and pyrimidine derivatives and methods of treatment related to the use thereof” (TAISHO PHARMACEUTICAL CO., LTD., priority 2003, published 2005).

SMILES strings stand for the structures. Counter-ions that a name gives are not always drawn. Like-named read-outs stand apart in the source and are kept apart here.

In the experiment the target is MCH receptor (Homo sapiens, UniProt Q99705). The experiment in a line: High throughput functional screening FLIPR/FDSS6000 (intracellular Ca2+ evoked by MCH). The class given is cell-based. The settings on record: FLIPR/FDSS, antagonist activity vs 50 nM MCH, class by percent of control at 10^−7 M or IC50, read-out: class. The source says: High Throughput Functional Screening: FLIPR™
This assay utilized a non-endogenous, constitutively active version of the MCH receptor.
The concentration of free Ca^2+ in the cytosol of any cell is extremely low, whereas its concentration in the extracellular fluid and endoplasmic reticulum (ER) is very high. Thus, there is a large gradient tending to drive Ca^2+ into the cytosol across both the plasma membrane and ER. The FLIPR™ and FDSS6000™ systems (Molecular Devices Corporation, […] Photonics K.K.) are designed to perform functional cell-based assays, such as the measurement of intracellular calcium for high-throughput screening. The measurement of fluorescent is associated with calcium release upon activation of the Gq-coupled receptors.
Fluorometric Imaging Plate Reader system was used to allow for rapid, kinetic measurements of intracellular fluorescence in 96 well microplates (or 384 well microplates). Simultaneous measurements of fluorescence in all wells can be made by FLIPR or FDSS6000™ every second with high sensitivity and precision. These systems are ideal for measuring cell-based functional assays such as monitoring the intracellular calcium fluxes that occur within seconds after activation of the Gq coupled receptor.
Briefly, the cells are seeded into 96 well at 5.5×10^4 cells/well with complete culture media (Dulbecco's Modified Eagle Medium with 10% fetal bovine serum, 2 mM L-glutamine, 1 mM sodium pyruvate and 0.5 mg/ml G418, pH 7.4) for the assay next day. On the day of assay, the media is removed and the cells are incubated with 100 μl of loading buffer (4 μM Fluo4-AM in complete culture media containing 2.5 mM Probenicid, 0.5 mg/ml and 0.2% bovine serum albumin) in 5% CO2 incubator at 37° C. for 1 hr. The loading buffer is removed, and the cells are washed with wash buffer (Hank's Balanced Salt Solution containing 2.5 mM Probenicid, 20 mM HEPES, 0.5 mg/ml and 0.2% bovine serum albumin, pH 7.4)). One hundred fifty μl of wash buffer containing various concentrations of test compound is added to the cells, and the cells are incubated in 5% CO2 incubator at 37° C. for 30 min. […] 530 nm for 290 second. When antagonist activity of compound is tested, 50 nM of MCH is used.
Use of FLIPR™ and FDSS6000™ can be accomplished by following manufacturer's instruction (Molecular Device Corporation and […] Photonics K.K.).

Regarding `O=C(N[C@H]1CC[C@@H](Nc2ccc3ccccc3n2)CC1)c1cccnc1Cl` [Example 3037, 2-Chloro-N-[cis-4-(quinolin-2-ylamino)-cyclohexyl]-nicotinamide hydrochloride], the IC50 (table after the classification) was over 200 nM. `CN(CCO)c1ccnc(N[C@H]2CC[C@@H](NC(=O)c3ccc(F)c(F)c3)CC2)n1` [Example 3227, 3,4-Difluoro-N-(cis-4-{4-[(2-hydroxy-ethyl)-methyl-amino]-pyrimidin-2-ylamino}-cyclohexyl)-benzamide hydrochloride]: for the setting “table after the classification”, the IC50 was over 200 nM. Turning to `Cc1cnc(N[C@H]2CC[C@@H](NC(=O)Nc3cccc(Cl)c3Cl)CC2)nc1N(C)C` [Example 3343, N-(2,3-dichlorophenyl)-N′-(cis-4-{[4-(dimethylamino)-5-methylpyrimidin-2-yl]amino}cyclohexyl)urea], the IC50 was over 200 nM. In the case of `COC(=O)c1cccc(C(=O)N[C@H]2CC[C@@H](Nc3ccc4ccccc4n3)CC2)c1` [Example 3147, N-[cis-4-(Quinolin-2-ylamino)-cyclohexyl]-isophthalamic acid methyl ester hydrochloride], the IC50 (table after the classification) was in the range of 50 to 200 nM. For `CN(C)c1ccnc(N[C@H]2CC[C@@H](NCc3ccc(Br)cc3OC(F)(F)F)CC2)n1` [Example 17, N^2-[cis-4-(4-Bromo-2-trifluoromethoxy-benzyl)-amino-cyclohexyl]-N^4,N^4-dimethyl-pyrimidin-2,4-diamine dihydrochloride], the IC50 (table after the classification) is 50 to 200 nM.

For the compound `Cc1cnc(N[C@H]2CC[C@@H](NC(=O)Nc3ccc(Cl)cc3Cl)CC2)nc1N(C)C` [Example 3338, N-(2,4-dichlorophenyl)-N′-(cis-4-{[4-(dimethylamino)-5-methylpyrimidin-2-yl]amino}cyclohexyl)urea], the IC50 is 50 to 200 nM. For the compound `O=C(N[C@H]1CC[C@@H](Nc2cc(C(F)(F)F)c3ccccc3n2)CC1)c1ccc(F)c(F)c1` [Example 3237, 3,4-Difluoro-N-[cis-4-(4-trifluoromethyl-quinolin-2-yl)-amino-cyclohexyl]-benzamide hydrochloride], the IC50 (table after the classification) is over 200 nM. On to `O=C(N[C@H]1CC[C@@H](Nc2ccc3ccccc3n2)CC1)c1ccc(F)c(F)c1` [Example 3031, 3,4-Difluoro-N-[cis-4-(quinolin-2-ylamino)-cyclohexyl]-benzamide hydrochloride], for which the IC50 (table after the classification) is under 50 nM. `Cc1cccc(OCC(=O)N[C@H]2CC[C@@H](Nc3cc(C)c4ccccc4n3)CC2)c1` [Example 3084, N-[cis-4-(4-Methyl-quinolin-2-ylamino)-cyclohexyl]-2-m-tolyloxy-acetamide hydrochloride]: the IC50 (table after the classification) is under 50 nM. As for `Cc1cnc(N[C@H]2CC[C@@H](NC(=O)Nc3c(Cl)cc(Cl)cc3Cl)CC2)nc1N(C)C` [Example 3345, N-(cis-4-{[4-(dimethylamino)-5-methylpyrimidin-2-yl]amino}cyclohexyl)-N′-(2,4,6-trichlorophenyl)urea], the IC50 is under 50 nM. Regarding `Cc1cc(N[C@H]2CC[C@@H](NC(=O)c3ccc4nonc4c3)CC2)nc2ccccc12` [Example 3085, Benzo[2,1,3]oxadiazole-5-carboxylic acid-[cis-4-(4-methyl-quinolin-2-ylamino)-cyclohexyl]-amide hydrochloride], the IC50 (table after the classification) was under 50 nM. Still for that read-out and setting: to `Cc1cc(N[C@H]2CC[C@@H](NC(=O)c3cccc(C(N)=O)c3)CC2)nc2ccccc12` [Example 3178, N-[cis-4-(4-Methylquinolin-2-ylamino)-cyclohexyl]-isophthalamide hydrochloride] belongs 50 to 200 nM; to `Cc1cc(C(=O)N[C@H]2CC[C@@H](Nc3nc4c(c(N(C)C)n3)CCCC4)CC2)ccc1F` [Example 3109, N-[cis-4-(4-Dimethylamino-5,6,7,8-tetrahydro-quinazolin-2-ylamino)-cyclohexyl]-4-fluoro-3-methyl-benzamide hydrochloride], under 50 nM; to `COc1ccc(Oc2ncccc2C(=O)N[C@H]2CC[C@@H](Nc3cc(C)c4ccccc4n3)CC2)cc1` [Example 3095, 2-(4-Methoxy-phenoxy)-N-[cis-4-(4-methyl-quinolin-2-ylamino)-cyclohexyl]-nicotinamide hydrochloride], under 50 nM. In the case of `Cc1cc(N[C@H]2CC[C@@H](NC(=O)c3cc(F)c(F)c(F)c3)CC2)nc2ccccc12` [Example 3180, 3,4,5-Trifluoro-N-[cis-4-(4-methyl-quinolin-2-ylamino)-cyclohexyl]-benzamide hydrochloride], the IC50 (table after the classification) is under 50 nM. `NC(=O)c1cccc(C(=O)N[C@H]2CC[C@@H](Nc3ccc4ccccc4n3)CC2)c1` [Example 3155, N-[cis-4-(Quinolin-2-ylamino)cyclohexyl]-isophthalamide hydrochloride]: the IC50 (table after the classification) is over 200 nM. The same measure, in the same setting: as for `CN(C)c1ccnc(N[C@H]2CC[C@@H](NCCc3ccc(Br)cc3OC(F)(F)F)CC2)n1` [Example 18, N^2-{cis-4-[2-(4-Bromo-2-trifluoromethoxy-phenyl)-ethylamino]-cyclohexyl}-N^4,N^4-dimethyl-pyrimidine-2,4-diamine dihydrochloride], the figure is under 50 nM. As to `Cc1cnc(N[C@H]2CC[C@@H](NC(=O)Nc3cc(C(F)(F)F)cc(C(F)(F)F)c3)CC2)nc1N(C)C` [Example 3334, N-[3,5-bis(trifluoromethyl)phenyl]-N′-(cis-4-{[4-(dimethylamino)-5-methylpyrimidin-2-yl]amino}cyclohexyl)urea], the IC50 was in the range of 50 to 200 nM. Turning to `CNc1nc(N[C@H]2CC[C@@H](C(N)Cc3ccccc3OC(F)(F)F)CC2)nc2c1CCCC2` (relative stereo) [Example 12, N^4-Methyl-N^2-{cis-4-[(2-trifluoromethoxy-benzyl)-amino-methyl]-cyclohexyl}-5,6,7,8-tetrahydro-quinazoline-2,4-diamine dihydrochloride], where the note is “table after the classification”, the IC50 fell in the range of 50 to 200 nM. `Cc1cc(N[C@H]2CC[C@@H](NC(=O)c3ccc(F)cc3)CC2)nc2ccccc12` [Example 3169, 4-Fluoro-N-[cis-4-(4-methyl-quinolin-2-ylamino)-cyclohexyl]-benzamide hydrochloride]: under “table after the classification”, the IC50 was under 50 nM. With `Cc1cc(N[C@H]2CC[C@@H](C(=O)N[C@H](C)c3ccc(Cl)cc3)CC2)nc2ccccc12` [Example 3305, cis-N-[(1R)-1-(4-chlorophenyl)ethyl]-4-[(4-methylquinolin-2-yl)amino]cyclohexanecarboxamide], the IC50 fell in the range of 50 to 200 nM.

In the case of `Cc1cc(C)nc(N[C@H]2CC[C@@H](NC(=O)c3ccc(F)c(F)c3)CC2)n1` [Example 3142, N-[cis-4-(4,6-Dimethyl-pyrimidin-2-ylamino)-cyclohexyl]-3,4-difluoro-benzamide hydrochloride], the IC50 (table after the classification) is over 200 nM.

Regarding `Cc1cc(N[C@H]2CC[C@@H](NC(=O)c3cccc(C#N)c3)CC2)nc2ccccc12` [Example 3087, 3-Cyano-N-[cis-4-(4-methyl-quinolin-2-ylamino)-cyclohexyl]-benzamide hydrochloride], the IC50 (table after the classification) was under 50 nM. As for `Cc1cnc(N[C@H]2CC[C@@H](NC(=O)[C@@H]3C[C@H]3c3ccc(F)c(F)c3)CC2)nc1N(C)C` (relative stereo) [Example 3318, trans-2-(3,4-difluorophenyl)-N-(cis-4-{[4-(dimethylamino)-5-methylpyrimidin-2-yl]amino}cyclohexyl)-cyclopropanecarboxamide], the IC50 was under 50 nM.

For the compound `CNc1cc(N[C@H]2CC[C@@H](NCc3ccc(Br)cc3OC(F)(F)F)CC2)nc2ccccc12` [Example 1, N^2-[cis-4-(4-Bromo-2-triflouromethoxy-benzyl)-amino-cyclohexyl]-N^4-methyl-quinoline-2,4-diamine dihydrochloride], the IC50 (table after the classification) is 50 to 200 nM. For `Cc1cc(N[C@H]2CC[C@@H](NC(=O)c3ccc(F)c(F)c3)CC2)nc2ccccc12` [Example 3238, 3,4-Difluoro-N-[cis-4-(4-methyl-quinolin-2-ylamino)-cyclohexyl]-benzamide methanesulfonic acid], the IC50 (table after the classification) is under 50 nM. Take `Cc1cc(N(C)C)nc(N[C@H]2CC[C@@H](C(=O)NC(C)(C)c3ccc(Cl)cc3)CC2)n1` [Example 3274, cis-N-[1-(4-chlorophenyl)-1-methylethyl]-4-{[4-(dimethylamino)-6-methylpyrimidin-2-yl]amino}cyclohexanecarboxamide]: the IC50 was over 200 nM. Same read-out and setting: to `COc1cccc(NC(=O)N[C@H]2CC[C@@H](Nc3ncc(C)c(N(C)C)n3)CC2)c1` [Example 3322, N-(cis-4-{[4-(dimethylamino)-5-methylpyrimidin-2-yl]amino}cyclohexyl)-N′-(3-methoxyphenyl)urea] belongs over 200 nM.
